# Experimental data reported in patent US20020137929A1, “1 - (3-heterocyclylphenyl) isothiourea, -isourea, -guanidine and -amidine herbicidal agents” (Intellectual Property Department, BASF Aktiengesellschaft, priority 1998, published 2002).
# How the values were obtained:
# [1] = system: CASOB (Sicklepod); assay: Preemergence herbicidal evaluation; assay type: in vivo, Cassia obtusifolia; conditions: rated 4-5 weeks after treatment
# How it was run: (§1)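 Rating at 4–5 wk post-spray on a 0–9 visual scale vs control. Application: aqueous acetone, ~0.0156–0.500 kg/ha, to soil surface after seeding, preemergence.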
# [2] = system: SAGPY (Arrowhead (Pygmaea)); assay: Preemergence weed control under flooded paddy conditions; assay type: in vivo, Sagittaria pygmaea; conditions: rated 3-4 weeks after treatment
# How it was run: (§2)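 Ratings on a 0-9 visual scale cover stand, vigor, malformation, size, chlorosis and overall appearance relative to a control, taken three to four weeks post-treatment. Application was into flood water over freshly sown silt loam at roughly 0.0313 to 0.500 kg/ha.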
# [3] = system: ECHORC (Watergrass (Calif.)); assay: Postemergence weed control under flooded paddy conditions; assay type: in vivo, Echinochloa oryzoides; conditions: postemergence weeds, 3-4 weeks after treatment
# How it was run: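 With weeds 3 to 5 cm tall and rice at the 1.5 to 2.5 leaf stage, containers were flooded and water held 1.5 to 3 cm above soil. Compounds in 50/50 v/v aqueous/acetone went into the flood water at about 0.0313 to 0.500 kg/ha a.i. Effects were visually rated 0–9 against controls after three to four weeks in the greenhouse.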
# [4] = system: AMBEL (Ragweed, Common); assay: Preemergence herbicidal evaluation; assay type: in vivo, Ambrosia artemisifolia; conditions: rated 4-5 weeks after treatment
# How it was run: as §1
# [5] = system: ZEAMX (Corn, Field); assay: Postemergence herbicidal evaluation; assay type: in vivo, Zea mays; conditions: for ZEAMX herbicidal rating: postemergence
# How it was run: (§3)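 Young plants, roughly two weeks from seeding, receive the active ingredient as a sprayed dispersion (acetone/water 50/50, 0.5% TWEEN 20) at 40 psi. Doses span about 0.0156 to 0.500 kg/ha. A visual score from 0 to 9 compares treated with control plants four to five weeks on.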
# [6] = system: ABUTH (Velvetleaf); assay: Preemergence herbicidal evaluation; assay type: in vivo, Abutilon theophrasti; conditions: rated 4-5 weeks after treatment
# How it was run: as §1
# [7] = system: AMBEL (Ragweed, Common); assay: Postemergence herbicidal evaluation; assay type: in vivo, Ambrosia artemisifolia; conditions: for AMBEL herbicidal rating: postemergence
# How it was run: as §3
# [8] = system: GLXMAW (Soybean, Williams); assay: Postemergence herbicidal evaluation; assay type: in vivo, Glycine max, (L.) Merr. cv Williams; conditions: for GLXMAW herbicidal rating: postemergence
# How it was run: as §3
# [9] = system: CYPSE (Flatsedge); assay: Preemergence weed control under flooded paddy conditions; assay type: in vivo, Cyperus serotinus; conditions: rated 3-4 weeks after treatment
# How it was run: as §2
# [10] = system: IPOHE (Morningglory, Ivyleaf); assay: Postemergence herbicidal evaluation; assay type: in vivo, Ipomoea hederacea; conditions: for IPOHE herbicidal rating: postemergence
# How it was run: as §3
# [11] = system: GLXMAW (Soybean, Williams); assay: Preemergence herbicidal evaluation; assay type: in vivo, Glycine max, (L.) Merr. cv Williams; conditions: rated 4-5 weeks after treatment
# How it was run: as §1
# [12] = system: GALAP (Galium); assay: Preemergence herbicidal evaluation; assay type: in vivo, Galium aparine; conditions: rated 4-5 weeks after treatment
# How it was run: as §1
# [13] = system: ECHCG (Barnyardgrass); assay: Preemergence herbicidal evaluation; assay type: in vivo, Echinochloa crus-galli; conditions: rated 4-5 weeks after treatment
# How it was run: as §1
# [14] = system: SETVI (Foxtail, Green); assay: Preemergence herbicidal evaluation; assay type: in vivo, Setaria viridis; conditions: rated 4-5 weeks after treatment
# How it was run: as §1
smiles,measurement,setting,value
"CCOP(=O)(CN1C(=O)CSC1=Nc1cc(-n2c(=O)cc(C(F)(F)F)n(C)c2=O)c(F)cc1Cl)OCC [Compound 35, Diethyl {{2-{{2-chloro-5-[3,6-dihydro-3-methyl-2,6-dioxo-4-(trifluoromethyl)-1(2H)-pyrimidinyl]-4-fluorophenyl}imino}-4-oxo-3-thiazolidinyl}methyl}phosphonate]",Preemergence herbicidal rating CASOB,[1]; rate 0.0625 kg/ha,0.0
same,Preemergence herbicidal rating CASOB,[1]; rate 0.1250 kg/ha,0.0
same,Preemergence herbicidal rating CASOB,[1]; rate 0.2500 kg/ha,3.0
same,Herbicidal rating SAGPY,[2]; 0.1250 kg/ha,0.0
same,Herbicidal rating SAGPY,[2]; 0.2500 kg/ha,3.0
same,Herbicidal rating ECHORC,[3]; rate 0.1250 kg/ha,3.0
same,Herbicidal rating ECHORC,[3]; rate 0.2500 kg/ha,6.0
same,Preemergence herbicidal rating AMBEL,[4]; rate 0.0625 kg/ha,0.0
same,Preemergence herbicidal rating AMBEL,[4]; rate 0.1250 kg/ha,3.0
same,Preemergence herbicidal rating AMBEL,[4]; rate 0.2500 kg/ha,9.0
same,Postemergence herbicidal rating ZEAMX,[5]; Rate 0.0158 kg/ha,3.5
same,Postemergence herbicidal rating ZEAMX,[5]; Rate 0.0315 kg/ha,3.5
same,Postemergence herbicidal rating ZEAMX,[5]; Rate 0.0630 kg/ha,4.5
same,Preemergence herbicidal rating ABUTH,[6]; rate 0.0625 kg/ha,9.0
same,Preemergence herbicidal rating ABUTH,[6]; rate 0.1250 kg/ha,9.0
same,Preemergence herbicidal rating ABUTH,[6]; rate 0.2500 kg/ha,9.0
same,Postemergence herbicidal rating AMBEL,[7]; Rate 0.0158 kg/ha,9.0
same,Postemergence herbicidal rating AMBEL,[7]; Rate 0.0315 kg/ha,9.0
same,Postemergence herbicidal rating AMBEL,[7]; Rate 0.0630 kg/ha,9.0
same,Postemergence herbicidal rating GLXMAW,[8]; Rate 0.0158 kg/ha,7.0
same,Postemergence herbicidal rating GLXMAW,[8]; Rate 0.0315 kg/ha,7.5
same,Postemergence herbicidal rating GLXMAW,[8]; Rate 0.0630 kg/ha,9.0
same,Herbicidal rating CYPSE,[9]; 0.1250 kg/ha,0.0
same,Herbicidal rating CYPSE,[9]; 0.2500 kg/ha,0.0
same,Postemergence herbicidal rating IPOHE,[10]; Rate 0.0158 kg/ha,9.0
same,Postemergence herbicidal rating IPOHE,[10]; Rate 0.0315 kg/ha,9.0
same,Postemergence herbicidal rating IPOHE,[10]; Rate 0.0630 kg/ha,9.0
same,Preemergence herbicidal rating GLXMAW,[11]; rate 0.0625 kg/ha,0.0
same,Preemergence herbicidal rating GLXMAW,[11]; rate 0.1250 kg/ha,0.0
same,Preemergence herbicidal rating GLXMAW,[11]; rate 0.2500 kg/ha,2.0
same,Preemergence herbicidal rating GALAP,[12]; rate 0.0625 kg/ha,0.0
same,Preemergence herbicidal rating GALAP,[12]; rate 0.1250 kg/ha,0.0
same,Preemergence herbicidal rating GALAP,[12]; rate 0.2500 kg/ha,9.0
same,Preemergence herbicidal rating ECHCG,[13]; rate 0.0625 kg/ha,0.0
same,Preemergence herbicidal rating ECHCG,[13]; rate 0.1250 kg/ha,0.0
same,Preemergence herbicidal rating ECHCG,[13]; rate 0.2500 kg/ha,0.0
same,Preemergence herbicidal rating SETVI,[14]; rate 0.0625 kg/ha,0.0
same,Preemergence herbicidal rating SETVI,[14]; rate 0.1250 kg/ha,0.0
same,Preemergence herbicidal rating SETVI,[14]; rate 0.2500 kg/ha,9.0
"CCOC(=O)CN1C(=O)C(=Cc2ccc(F)cc2)SC1=Nc1cc(-n2c(=O)cc(C(F)(F)F)n(C)c2=O)c(F)cc1Cl [Compound 21, Ethyl 2-{{2-chloro-5-[3,6-dihydro-3-methyl-2,6-dioxo-4-(trifluoromethyl)-1(2H)-pyrimidinyl]-4-fluorophenyl}imino}-5-(p-fluorobenzylidene)-4-oxo-3-thiazolidineacetate]",CASOB preemergence herbicidal rating,[1]; rate 0.2500 kg/ha,0.0
same,Herbicidal rating SAGPY,[2]; 0.1160 kg/ha,0.0
same,Herbicidal rating SAGPY,[2]; 0.2310 kg/ha,0.0
same,Herbicidal rating SAGPY,[2]; 0.4630 kg/ha,0.0
same,Herbicidal rating ECHORC,[3]; rate 0.1160 kg/ha,2.0
same,Herbicidal rating ECHORC,[3]; rate 0.2310 kg/ha,4.0
same,Herbicidal rating ECHORC,[3]; rate 0.4630 kg/ha,5.0
same,AMBEL preemergence herbicidal rating,[4]; rate 0.2500 kg/ha,0.0
same,ZEAMX herbicidal rating,[5]; rate 0.0158 kg/ha,4.0
same,ZEAMX herbicidal rating,[5]; rate 0.0315 kg/ha,4.0
same,ZEAMX herbicidal rating,[5]; rate 0.0630 kg/ha,4.5
same,ABUTH preemergence herbicidal rating,[6]; rate 0.2500 kg/ha,2.0
same,AMBEL herbicidal rating,[7]; rate 0.0158 kg/ha,4.0
same,AMBEL herbicidal rating,[7]; rate 0.0315 kg/ha,4.0
same,AMBEL herbicidal rating,[7]; rate 0.0630 kg/ha,6.0
same,GLXMAW herbicidal rating,[8]; rate 0.0158 kg/ha,2.0
same,GLXMAW herbicidal rating,[8]; rate 0.0315 kg/ha,2.5
same,GLXMAW herbicidal rating,[8]; rate 0.0630 kg/ha,4.5
same,Herbicidal rating CYPSE,[9]; 0.1160 kg/ha,0.0
same,Herbicidal rating CYPSE,[9]; 0.2310 kg/ha,0.0
same,Herbicidal rating CYPSE,[9]; 0.4630 kg/ha,0.0
same,IPOHE herbicidal rating,[10]; rate 0.0158 kg/ha,1.0
same,IPOHE herbicidal rating,[10]; rate 0.0315 kg/ha,2.0
same,IPOHE herbicidal rating,[10]; rate 0.0630 kg/ha,9.0
same,GLXMAW preemergence herbicidal rating,[11]; rate 0.2500 kg/ha,0.0
same,GALAP preemergence herbicidal rating,[12]; rate 0.2500 kg/ha,0.0
same,ECHCG preemergence herbicidal rating,[13]; rate 0.2500 kg/ha,0.0
same,SETVI preemergence herbicidal rating,[14]; rate 0.2500 kg/ha,0.0
